Reference: paper PMC4433859 (Journal of immunology (Baltimore, Md. : 1950), 2015)
Where no end group is shown, it is not given here.

Legend:
[1] = test system: HIV-specific CD8^+ T-cell responses; assay: IFNγ ELISpot with overlapping and optimal peptides; type: cell-based, human; details: IFNγ ELISpot responders among HLA-B*42:01^+ individuals, stratified for lack of HLA-B*07:02/39:10/42:02/81:01 co-expression (n=154)
[2] = target: HLA-B*42:01 (Homo sapiens, UniProt P01889, D138N/E176V/E187T/K202T/R180D); assay: biochemical; type: binding

Row | Sequence | targeting frequency [1] [%] | Kd [2] [nM]
1 | KVVPRRKAKIIKDYGKQM [Int-275] | 53 | 
2 | IIKDYGKQM [Int-IM9] |  | 19
